# T1: Octopamine receptor (Periplaneta americana) (UniProt Q7YWB7)
# T1 sequence (whole entry): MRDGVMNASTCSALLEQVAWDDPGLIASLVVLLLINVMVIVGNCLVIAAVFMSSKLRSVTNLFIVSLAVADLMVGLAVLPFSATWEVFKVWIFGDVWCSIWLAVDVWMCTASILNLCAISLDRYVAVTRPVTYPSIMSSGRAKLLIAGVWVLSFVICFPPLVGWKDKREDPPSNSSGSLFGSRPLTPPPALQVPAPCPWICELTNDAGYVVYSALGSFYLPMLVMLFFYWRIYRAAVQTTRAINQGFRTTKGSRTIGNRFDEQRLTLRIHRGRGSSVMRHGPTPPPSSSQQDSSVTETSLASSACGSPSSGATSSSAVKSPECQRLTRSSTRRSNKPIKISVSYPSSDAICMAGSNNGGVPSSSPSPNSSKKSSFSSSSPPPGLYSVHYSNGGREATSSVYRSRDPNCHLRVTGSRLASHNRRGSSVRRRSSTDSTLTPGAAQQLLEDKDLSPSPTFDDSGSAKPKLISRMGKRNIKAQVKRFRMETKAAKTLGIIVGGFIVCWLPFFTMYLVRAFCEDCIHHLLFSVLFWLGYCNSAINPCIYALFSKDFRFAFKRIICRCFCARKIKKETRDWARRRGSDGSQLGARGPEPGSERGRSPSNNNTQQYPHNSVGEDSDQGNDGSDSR
# B1: Octopamine receptor (Periplaneta americana), Q7YWB7 (protein)
# chain: MRDGVMNASTCSALLEQVAWDDPGLIASLVVLLLINVMVIVGNCLVIAAVFMSSKLRSVTNLFIVSLAVADLMVGLAVLPFSATWEVFKVWIFGDVWCSIWLAVDVWMCTASILNLCAISLDRYVAVTRPVTYPSIMSSGRAKLLIAGVWVLSFVICFPPLVGWKDKREDPPSNSSGSLFGSRPLTPPPALQVPAPCPWICELTNDAGYVVYSALGSFYLPMLVMLFFYWRIYRAAVQTTRAINQGFRTTKGSRTIGNRFDEQRLTLRIHRGRGSSVMRHGPTPPPSSSQQDSSVTETSLASSACGSPSSGATSSSAVKSPECQRLTRSSTRRSNKPIKISVSYPSSDAICMAGSNNGGVPSSSPSPNSSKKSSFSSSSPPPGLYSVHYSNGGREATSSVYRSRDPNCHLRVTGSRLASHNRRGSSVRRRSSTDSTLTPGAAQQLLEDKDLSPSPTFDDSGSAKPKLISRMGKRNIKAQVKRFRMETKAAKTLGIIVGGFIVCWLPFFTMYLVRAFCEDCIHHLLFSVLFWLGYCNSAINPCIYALFSKDFRFAFKRIICRCFCARKIKKETRDWARRRGSDGSQLGARGPEPGSERGRSPSNNNTQQYPHNSVGEDSDQGNDGSDSR
# Experiments:
# [1] = target: T1, Octopamine receptor (Periplaneta americana); assay: Agonist activity at Periplaneta americana (American cockroach) thoracic nerve cord octopaminergic receptor assessed as induction of adenylate cyclase-mediated cAMP production per mg protein at 100 uM by radioimmunoassay relative to octopamine
# [2] = target: T1, Octopamine receptor (Periplaneta americana); assay: Agonist activity at Periplaneta americana (American cockroach) thoracic nerve cord octopaminergic receptor assessed as induction of adenylate cyclase-mediated cAMP production per mg protein at 100 uM by radioimmunoassay
# [3] = target: T1, Octopamine receptor (Periplaneta americana); assay: Agonist activity at Periplaneta americana (American cockroach) thoracic nerve cord octopaminergic receptor assessed as induction of adenylate cyclase-mediated cAMP production per mg protein by radioimmunoassay
# [4] = target: T1, Octopamine receptor (Periplaneta americana); assay: Agonist activity at Periplaneta americana (American cockroach) thoracic nerve cord octopaminergic receptor assessed as induction of adenylate cyclase-mediated cAMP production per mg protein at 10 uM by radioimmunoassay relative to octopamine
# [5] = target: T1, Octopamine receptor (Periplaneta americana); assay: Agonist activity at Periplaneta americana (American cockroach) thoracic nerve cord octopaminergic receptor assessed as induction of adenylate cyclase-mediated cAMP production per mg protein at 10 uM by radioimmunoassay
# [6] = substrate: Clc1ccc(CNC2=NCCO2)cc1Cl; assay: (§1) Agonist activity at Periplaneta americana (American cockroach) thoracic nerve cord octopaminergic receptor assessed as induction of adenylate cyclase-mediated cAMP production per mg protein by radioimmunoassay relative to octopamine
# [7] = substrate: Clc1ccc(CNC2=NCCS2)cc1Cl; assay: as §1
# [8] = substrate: CCc1cccc(CC)c1/N=C1/NCCO1; assay: as §1
molecule,measurement,setting,value
COc1cccc(CNC2=NCCO2)c1,max activation,[1],-3.6%
same,Activity,[2],91.5 pmol/min
Clc1cccc(/N=C2/NCCO2)c1Cl,max activation,[1],2%
same,Activity,[2],121 pmol/min
Clc1ccc(CNC2=NCCO2)cc1,max activation,[1],31.7%
same,Activity,[2],275 pmol/min
Cc1cccc(CNC2=NCCO2)c1,max activation,[1],9.2%
same,Activity,[2],158 pmol/min
COc1ccc(CNC2=NCCO2)cc1,max activation,[1],17%
same,Activity,[2],199 pmol/min
Cc1cc(Cl)ccc1/N=C1/NCCO1,max activation,[1],17.9%
same,Activity,[2],204 pmol/min
same,Ka,[3],0.18 µM
FC(F)(F)c1cccc(CNC2=NCCO2)c1,max activation,[1],17.2%
same,Activity,[2],200 pmol/min
COc1ccc(CNC2=NCCO2)c(OC)c1,max activation,[1],9.8%
same,Activity,[2],161 pmol/min
Fc1ccc(CNC2=NCCO2)cc1,max activation,[1],11.2%
same,Activity,[2],168 pmol/min
Fc1ccccc1CNC1=NCCO1,max activation,[1],14.2%
same,Activity,[2],184 pmol/min
Clc1ccc(CNC2=NCCO2)c(Cl)c1,max activation,[1],11.8%
same,Activity,[2],172 pmol/min
Brc1cc(Br)c(/N=C2/NCCO2)c(Br)c1,max activation,[1],-4.4%
same,Activity,[2],87.4 pmol/min
O=[N+]([O-])c1cccc(CNC2=NCCO2)c1,max activation,[1],18.4%
same,Activity,[2],206 pmol/min
Fc1ccc(F)c(CNC2=NCCO2)c1,max activation,[1],19.3%
same,Activity,[2],211 pmol/min
Clc1ccc(CNC2=NCCO2)cc1Cl,max activation,[1],13.5%
same,Activity,[2],180 pmol/min
same,Ka,[3],2.3 µM
Fc1cccc(F)c1/N=C1/NCCO1,max activation,[1],-0.3%
same,Activity,[2],109 pmol/min
COc1cccc(CNC2=NCCO2)c1OC,max activation,[1],8.9%
same,Activity,[2],157 pmol/min
Clc1ccc(/N=C2/NCCO2)c(Cl)c1Cl,max activation,[1],15.1%
same,Activity,[2],189 pmol/min
CCc1ccc(/N=C2/NCCO2)cc1,max activation,[1],11.5%
same,Activity,[2],170 pmol/min
same,Ka,[3],36 µM
FC(F)(F)c1ccccc1CNC1=NCCO1,max activation,[1],5.1%
same,Activity,[2],137 pmol/min
COc1ccccc1CNC1=NCCO1,max activation,[1],6.9%
same,Activity,[2],146 pmol/min
Clc1ccc(CNC2=NCCS2)cc1Cl,Ka,[3],0.4 µM
NCC(O)c1ccc(O)cc1 (stereo not given),Activity,[2],630 pmol/min
same,Ka,[3],7.6 µM
Brc1ccccc1CNC1=NCCO1,max activation,[1],10.4%
same,Activity,[2],164 pmol/min
CCc1ccccc1/N=C1/NCCO1,max activation,[1],-5%
same,Activity,[2],84.1 pmol/min
FC(F)(F)c1ccc(/N=C2/NCCO2)cc1,max activation,[1],6.6%
same,Activity,[2],145 pmol/min
Cc1ccc(CNC2=NCCO2)cc1,max activation,[1],35.2%
same,Activity,[2],293 pmol/min
Cc1cc(Br)ccc1/N=C1/NCCO1,max activation,[1],19.9%
same,Activity,[2],214 pmol/min
same,Ka,[3],0.19 µM
Clc1cc(Br)ccc1/N=C1/NCCO1,max activation,[1],-8.4%
same,Activity,[2],66.4 pmol/min
Clc1ccccc1CNC1=NCCO1,max activation,[1],17.4%
same,Activity,[2],200 pmol/min
Clc1cccc(/N=C2/NCCO2)c1,max activation,[1],0.2%
same,Activity,[2],111 pmol/min
Clc1cccc(CNC2=NCCO2)c1,Activity,[4],27.2%
same,Activity,[5],252 pmol/min
same,Ka,[3],0.16 µM
Fc1cc(F)c(/N=C2/NCCO2)c(F)c1,max activation,[1],2.5%
same,Activity,[2],123 pmol/min
Fc1ccc(F)c(/N=C2/NCCO2)c1,max activation,[1],-7.7%
same,Activity,[2],70.3 pmol/min
FC(F)(F)c1ccc(CNC2=NCCO2)cc1,max activation,[1],7%
same,Activity,[2],147 pmol/min
FC(F)(F)c1ccc(C(F)(F)F)c(/N=C2/NCCO2)c1,max activation,[1],-4.2%
same,Activity,[2],88.3 pmol/min
CCc1cccc(CC)c1NC1=NCCN1,Ka,[3],0.44 µM
CCc1cccc(CC)c1/N=C1/NCCO1,max activation,[1],49%
same,Activity,[2],365 pmol/min
same,Ka,[3],0.44 µM
COc1cc(/N=C2/NCCO2)cc(OC)c1OC,max activation,[1],-9.4%
same,Activity,[2],61.2 pmol/min
B1,Vmax,[6],29%
same,Vmax,[7],53%
same,Vmax,[8],58%

# From ChEMBL document CHEMBL3046675, “Synthesis and Octopaminergic-Agonist Activity of 2-(Arylimino)oxazolidines and 2-(Substituted Benzylamino)-2-oxazolines” (J Pestic Sci, 1996)
